The values below come from patent US20240263127A1, “CRYOPROTECTIVE COMPOSITIONS AND USES THEREOF” (DUPONT NUTRITION BIOSCIENCES APS, priority 2010, published 2024).

Data set [1] deals with Lactobacillus acidophilus. The experiment in a line: Viable cell count after freeze drying with cryoprotectant. As to conditions: for Recovery of viable cell from frozen pellets to freeze dried pellets: Example 2. It counts as cell-based. The protocol: (§1) The cell count of the freeze dried material has been evaluated through a typical bacteria enumeration method used for lactic acid bacteria. In this method, the freeze dried bacteria were suspended into a MRS solution with a stomacher and revitalized in that solution for 30 minutes. The suspension was then successively diluted in bottles of peptone buffer and finally cultured on a MRS nutritive media for 48 to 72 hours at 38° C. under anaerobic condition. During that period, the bacteria form colonies on the nutritive media. Those colonies were counted and results were expressed as Colony Forming Units (CFU) per gram. Various cryoprotectants (see table 1) were mixed in a suspension containing, Lactobacillus acidophilus at an approximate cell count of 1E11 CFU/gr. The mixture, called stabilized concentrate, was kept at 4-8° C. for 1.5 hrs and continuously agitated before being frozen by dispensing droplets of the stabilized concentrate into liquid nitrogen. The resulting frozen droplets are called frozen pellets. The frozen pellets were freeze dried in a Virtis® freeze drier at 100 mT and a cell count measurement was performed just after freeze drying by performing an accelerated stability test. Various ratio of Inositol over Trehalose have been tested. The cryoprotectants were mixed for 1 to 3 hrs at 10-30° C. to a suspension containing Lactobacillus acidophilus at an approximate cell count of 1E11 CFU/gr. The mixture was frozen and freeze dried, and a cell count was performed just after freeze drying by performing an accelerated stability test, as disclosed in Example 1.

The test system of data set [2] is Lactobacillus acidophilus. It counts as cell-based. The conditions noted are these: for Viable cell counts after accelerated stability test: L. acidophilus; for Recovery of viable cell after accelerated stability test: Lactobacillus acidophilus, 14 days. The protocol: as §1, with “gram. Long term stability of freeze dried bacteria as a function of time is a critical characteristic for commercial application. The long term stability can be evaluated by accelerated stability test consisting of placing the freeze dried cells into a sealed laminated aluminum foil in a constant temperature chamber maintained at 38° C. for fourteen days. The cell count of the freeze dried material is measured before and after the exposure to elevated temperature. A recovery rate of cells is calculated by subtracting the cells measured after the accelerated stability test from the initial cells measurement and dividing the subtraction results by the initial count. The accelerated stability test recovery rate gives a relative estimate of the long term cell stability.” for “gram.”

Where [3] appears, read: L. acidophilus suspension approx. 1E11 CFU/gr, freeze dried at 100 mT, Example 1.
Where [4] appears, read: freeze dried cells 38° C. for fourteen days, Example 1.
Setting [5] is: L. acidophilus, Example 2, Trehalose/Inositol ratios.
Where [6] appears, read: 38° C. for fourteen days, Example 2.

SMILES strings stand for the structures. Where two headings read alike, the source gives them in different places.

As to `O[C@H]1[C@H](O)[C@@H](O)[C@H](O)[C@@H](O)[C@H]1O` [Inositol alone, Inositol], in data set [1] (setting [3]), the “Viable cell counts after freeze drying” value came to 3.2E+11 CFU/gr. Also, the “Viable cell counts after accelerated stability test” value in data set [2] (setting [4]) worked out at 1.3E+11 CFU/gr. The “Recovery of viable cell after accelerated stability test” value in data set [2] was 41.0%.

`O[C@H]1[C@H](O)[C@@H](O)[C@H](O)[C@@H](O)[C@H]1O` [Trehalose 0.0 / Inositol 9.1, Inositol]: the “Recovery of viable cell from frozen pellets to freeze dried pellets” value in data set [1] (L. acidophilus) is recorded as 81.2%. Besides, the “Viable cell counts after freeze drying” value in data set [1] (setting [5]) was determined as 5.14E+11 CFU/gr. The “Recovery of viable cells after accelerated stability test” value in data set [2] came to 72.37%. Moreover, the “Viable cell counts after accelerated stability test” value in data set [2] (setting [6]) was determined as 3.72E+11 CFU/gr.

Turning to `OC[C@H]1O[C@H](O[C@H]2O[C@H](CO)[C@@H](O)[C@H](O)[C@H]2O)[C@H](O)[C@@H](O)[C@@H]1O` [Trehalose alone experiment 2, Trehalose], in data set [1] (setting [3]), the “Viable cell counts after freeze drying” value worked out at 6.6E+11 CFU/gr. In data set [2] (setting [4]), the “Viable cell counts after accelerated stability test” value stood at 2.4E+11 CFU/gr. The “Recovery of viable cell after accelerated stability test” value in data set [2] is 38.0%.

For the compound `O[C@H]1[C@H](O)[C@@H](O)[C@H](O)[C@@H](O)[C@H]1O` [Trehalose 0.0 / Inositol 20.0, Inositol], the “Recovery of viable cell from frozen pellets to freeze dried pellets” value in data set [1] (L. acidophilus) came to 94.7%. Further, in data set [1] (setting [5]), the “Viable cell counts after freeze drying” value was determined as 3.70E+11 CFU/gr. Besides, the “Recovery of viable cells after accelerated stability test” value in data set [2] came out at 65.41%. For the same compound, the “Viable cell counts after accelerated stability test” value in data set [2] (setting [6]) is reported as 2.42E+11 CFU/gr.

`OC[C@H]1O[C@H](O[C@H]2O[C@H](CO)[C@@H](O)[C@H](O)[C@H]2O)[C@H](O)[C@@H](O)[C@@H]1O` [Trehalose alone experiment 1, Trehalose]: in data set [1] (setting [3]), the “Viable cell counts after freeze drying” value was 7.4E+11 CFU/gr. Besides, in data set [2] (setting [4]), the “Viable cell counts after accelerated stability test” value stood at 2.2E+11 CFU/gr. In data set [2], the “Recovery of viable cell after accelerated stability test” value amounted to 29.0%.
